Measurements taken from patent US9669104B2, “Nanocomplex containing amphipathic peptide useful for efficient transfection of biomolecules” (Council of Scientific and Industrial Research, priority 2012, dated 2017).
Entries after “also recorded” stand apart in the source; their conditions may differ.

Assays:
[1] = Size and zeta potential of nanocomplexes by DLS; assay type: physicochemical; details: nanocomplexes with DNA at charge ratio 10, DNA 25 ng/μl; for Size (nm): deionized water, 25° C.
Protocol: The mean hydrodynamic diameter and zeta potential of nanocomplexes prepared at charge 10.0 at 25 ng/μl of DNA concentration in deionized water were measured by Zeta sizer Nano ZS (Malvern Instruments, UK) at a fixed angle of 173° at 25° C. Minimum of 3 readings were recorded for each sample with replicates. As presented in Table-2 all the peptides were able to make nanocomplexes with DNA. The size of nanocomplexes was ranging from 50 to 110 nm and Zeta potential was ranging from 30 to 60 mV.
The mean hydrodynamic diameter and zeta potential of nanocomplex (Table 2) prepared at charge 10 at 25 ng/μl of DNA concentration in deionized water were measured by Zeta sizer Nano ZS (Malvern Instruments, UK) at a fixed angle of 173° at 25° C. Minimum of 3 readings were recorded for each sample with replicates. All five invented peptides were able to Make monodisperse nanocomplex with sizes ranging from 50 nm to 110 nm with DNA.

[2] = system: CHO-K1 cells; assay: Cellular uptake of small RNA (Siglo) by flow cytometry; assay type: cell-based, Chinese hamster; details: Siglo non-covalently complexed; for small RNA delivery: charge ratio 5; for uptake of the small RNA (fluorescence positive cells): charge ratio 5, CHO-K1, 4 h
Protocol: (§1) The uptake of the small RNA, which is noncovalently complexed with the peptides, was almost 100% in CHO-K1 cells at charge ratio 5 for Mgpe-9 and Mgpe-10. Siglo was used as a model small RNA. This RNA was used to prepare the nanocomplexes with the peptide at charge ratio 5.0. Chinese hamster ovary cells (CHO-K1) were maintained in Ham's F-12K media supplemented with 10% (v/v) Fetal bovine serum (Life Technologies, USA); at 37° C. and 5% CO2 in humidified incubator. Cells were grown in 24 well plate which was seeded 24 h before use. At a confluency of 70-80% the cells were treated with labelled nanocomplexes for 4 h at 37° C. After incubation, the media was removed and cells were washed twice with PBS supplemented with heparin (1 mg/ml). The cells were then treated with trypsin (0.25%) for 5-10 min and harvested in complete media, pelleted down, washed with PBS, resuspended in PBS having 1% BSA and then analyzed on FACS-Calibur™ (Becton Dickinson, USA) using CellQuest. Pro software. The labelled nanocomplexes were excited using 488 nm laser and detected with 530/30 nm (FL1) band pass filter. In each case total 10,000 events were acquired. Percentage of fluorescence positive cells was plotted as bars and their mean intensity was plotted as a line.
as §1, with “Siglo” for “The uptake of the small RNA, which is noncovalently complexed with the peptides, was almost 100% in CHO-K1 cells at charge ratio 5 for Mgpe-9 and Mgpe-10. Siglo”, “RNA” for “RNA.”, “plates” for “plate”, “CellQuest” for “CellQuest.”, “line. The uptake of the small RNA, which is noncovalently complexed with the peptides, was almost 100% in CHO-K1 cells at charge ratio 5 for Mgpe-9 and Mgpe-10. […] Nanocomplex containing invented peptide can carry biomolecules in the range of 20 bp to 7 kbp size.” for “line.”

[3] = system: CHO-K1 cells; assay: Luciferase transfection efficiency in CHO-K1 cells; assay type: cell-based, Chinese hamster
Source text: The transfection efficiency in terms of reporter gene expression has been checked using luciferase reporter assay. A plasmid (pMIR-Report™ Luciferase) containing luciferase gene was complexed with the peptide and transfected to the cell. The nanocomplexes were made at different charge ratios and transfected in a wide range of cell lines. CHO-K1 cells were maintained in Ham's F-12K media and MCF-7 and A549 cells in low glucose DMEM supplemented with 10% (v/v) Fetal bovine serum (Life Technologies, USA); at 37° C. and 5% CO2 in humidified incubator. Cells were seeded 24 h before transfection in 24-well plates. Nanocomplexes were prepared with final DNA concentration of 20 ng/μl and incubated for 1 h at room temperature. 100 μl of nanocomplex was added to cells at ˜70% confluency in serum-free media (OptiMEM, Invitrogen). After 5 h of incubation at 37° C. and 5% CO2 in humidified incubator, the media was aspirated; cells were washed with phosphate buffered saline (PBS, pH 7.4) and supplemented with 500 μl of complete growth medium. After 24 h, cells were washed with PBS and lysed with 100 μl of cell culture lysis buffer (1×CCLR, Promega). Luciferase expression was measured in 50 μl of cell lysate supernatant using the luciferase assay substrate (Promega). Light emission was measured by integration over 1 Os in Orion microplate luminometer (Berthold Detection System, Germany). Luciferase activity was normalized with total protein content of the cells estimated using BCA protein assay (Pierce).
CHO-K1 cells were maintained in Ham's F-12K media and MCF-7 and A549 cells in low glucose DMEM supplemented with 10% (v/v) Fetal bovine serum (Life Technologies, USA); at 37° C. and 5% CO2 in humidified incubator. Cells were seeded 24 h before transfection in 24-well plates. A plasmid (pMIR-Report™ Luciferase) containing luciferase gene was complexed with the peptide and transfected to the cell. The nanocomplexes were made at different charge ratios and transfected in a wide range of cell lines. Nanocomplexes were prepared with final DNA concentration of 20 ng/μl and incubated for 1 h at room temperature. 100 μl of nanocomplex was added to cells at 70% confluency in serum-free media (OptiMEM, Invitrogen). Cellfectin, Superfect and Lipofectamine2000 used as manufacturer protocol. In case of transfection in presence of serum, nanocomplexes were added in complete media. […] Luciferase expression was measured in 50 μl of cell lysate supernatant using the luciferase assay substrate (Promega). Light emission was measured by integration over 10 s in Orion micro plate luminometer (Berthold Detection System, Germany). […]

[4] = system: MCF-7; assay: Luciferase transfection efficiency in MCF-7 cells; assay type: cell-based; details: MCF-7, charge ratio 5
Source text: (§2) The transfection efficiency in terms of reporter gene expression has been checked using luciferase reporter assay. A plasmid (pMIR-Report™ Luciferase) containing luciferase gene was complexed with the peptide and transfected to the cell. The nanocomplexes were made at different charge ratios and transfected in a wide range of cell lines. CHO-K1 cells were maintained in Ham's F-12K media and MCF-7 and A549 cells in low glucose DMEM supplemented with 10% (v/v) Fetal bovine serum (Life Technologies, USA); at 37° C. and 5% CO2 in humidified incubator. Cells were seeded 24 h before transfection in 24-well plates. […] Luciferase expression was measured in 50 μl of cell lysate supernatant using the luciferase assay substrate (Promega). Light emission was measured by integration over 1 Os in Orion microplate luminometer (Berthold Detection System, Germany). […]
(§3) CHO-K1 cells were maintained in Ham's F-12K media and MCF-7 and A549 cells in low glucose DMEM supplemented with 10% (v/v) Fetal bovine serum (Life Technologies, USA); at 37° C. and 5% CO2 in humidified incubator. […] Luciferase expression was measured in 50 μl of cell lysate supernatant using the luciferase assay substrate (Promega). Light emission was measured by integration over 10 s in Orion micro plate luminometer (Berthold Detection System, Germany). […]

[5] = system: A549; assay: Luciferase transfection efficiency in A549 cells; assay type: cell-based; details: A549, charge ratio 5
Source text: as §2, §3

[6] = system: CHO-K1 cells; assay: Transfection in presence of 10% serum; assay type: cell-based, Chinese hamster; details: CHO-K1, charge ratio 20

Row | Sequence | PDI [1] | Zeta potential(mV) [1] | Size (nm) [1] | small RNA delivery [2] | uptake of the small RNA (fluorescence positive cells) [2] | transfection efficiency compared with Cellfectin, Superfect and Lipofectamine 2000 ([3]; CHO-K1, charge ratio 5) | transfection efficiency (luciferase) ([3]; CHO-K1, charge ratio 5, plasmid DNA non-covalently complexed) | transfection efficiency (luciferase) [4] | transfection efficiency (luciferase) [5] | transfection efficiency in presence of serum [6] | transfection efficiency compared with Cellfectin and Superfect ([3]; CHO-K1, charge ratio 5) | transfection efficiency compared with Cellfectin and Superfect ([3]; CHO-K1, charge ratio 10)
1 | CLLYWFRRRHRHHRRRHRRC [Mgpe-10, Mgpe-4 with a cysteine residue at each end] | 0.206 ± 0.004 | 57.6 ± 3.2 mV | 66.2 ± 0.7 nm | found to show small RNA delivery | ~100% | – | – | – | – | – | – | –
2 | CRRLRHLRHHYRRRWHRFRC [Mgpe-9, Mgpe-3 with a cysteine residue at each end] | 0.169 ± 0.002 | 43.4 ± 0.1 mV | 75.8 ± 3.8 nm | found to show small RNA delivery | ~100% | higher or equal transfection efficiency; also recorded: highest transfection efficiency | more than 10^8 RLU/mg protein | more than 10^8 RLU/mg protein | more than 10^6 RLU/mg protein | up to 10^7 RLU/mg protein | – | –
3 | LLYWFRRRHRHHRRRHRR [Mgpe-4, primary amphipathic peptide by rearrangement of the amino acids of Mgpe-3] | 0.155 ± 0.010 | 25.4 ± 0.2 mV | 62.8 ± 7.0 nm | – | – | – | – | – | – | – | higher or equal transfection efficiency | –
4 | RRLRHLRHHYRRRWHRFR [Mgpe-3] | 0.152 ± 0.014 | 33.5 ± 5.9 mV | 63.2 ± 4.5 nm | – | – | – | – | – | – | – | – | higher or equal transfection efficiency
5 | SRLSHLRHHYSKKWHRFR (listed as Homo sapiens) [Mgpe-1, 18 mer amphipathic peptide derived from Human Protein phosphatase 1E; tested as nanocomplex with plasmid DNA] | 0.151 ± 0.031 | 36.5 ± 0.8 mV | 80.1 ± 7.3 nm | – | – | – | – | – | – | – | – | –
